Experiment [1] deals with A375 cells expressing a mutant BRAF polypeptide. As to conditions: A375 cells expressing a mutant BRAF polypeptide with one or more listed resistance mutations (A29V ... C748F).
Experiment [2] has as its system A375 cells expressing a wild-type BRAF polypeptide.
The next experiment has as its target BRAF V600E-P686Q (Homo sapiens, UniProt P15056, P686Q/V600E). Nature of the experiment: Western blot of p-MEK1/2 and p-ERK1/2 in transfected 293T cells (BRAF V600E-P686Q). It counts as cell-based. Conditions: 293T cells transfected with BRAF V600E-P686Q; 0, 0.08, 0.4, 2, 5 and 10 μM for 16 hours; immunoblot (FIG. 8). The procedure: (§1) 293T cells were transfected with 6 μg of pWZL(BLAST)-BRAF for each putative resistance allele and subsequently treated with a range of concentrations of the BRAF(V600E) inhibitor PLX4720 (0, 0.08, 0.4, 2, 5 and 10 μM) for 16 hours. Immunoblot studies were performed using standard procedures. Briefly, the treated cells were lysed with TNN buffer containing protease inhibitor (Roche), NaF and NaVO3 (1 mM each). Lysates were quantified (Bradford assay), denatured (95° C.), and resolved by SDS gel electrophoresis. Proteins was transferred to nitrocellulose membranes and probed with primary antibodies recognizing BRAF (Santa Cruz; 1:10,000 dilution), p-ERK1/2, p-MEK1/2 (Ser-217/221), and α-tubulin (Cell Signaling Technology; 1:1,000 dilution). After incubation with the appropriate secondary antibody (anti-rabbit or anti-mouse IgG, HRP-linked; 1:1,000 dilution) (Cell Signaling Technology), proteins were detected using chemiluminescence (Pierce).

The next experiment deals with BRAF-V600E-T521K (Homo sapiens, UniProt P15056, T521K/V600E). The experiment can be described thus: Western blot of p-MEK1/2 and p-ERK1/2 in transfected 293T cells (BRAF-V600E-T521K). It counts as cell-based. As to conditions: 293T cells transfected with BRAF-V600E-T521K; 0, 0.08, 0.4, 2, 5 and 10 μM for 16 hours; immunoblot (FIG. 8). The procedure: as §1
Sequence of BRAF-V600E-T521K (P15056 whole entry T521K/V600E): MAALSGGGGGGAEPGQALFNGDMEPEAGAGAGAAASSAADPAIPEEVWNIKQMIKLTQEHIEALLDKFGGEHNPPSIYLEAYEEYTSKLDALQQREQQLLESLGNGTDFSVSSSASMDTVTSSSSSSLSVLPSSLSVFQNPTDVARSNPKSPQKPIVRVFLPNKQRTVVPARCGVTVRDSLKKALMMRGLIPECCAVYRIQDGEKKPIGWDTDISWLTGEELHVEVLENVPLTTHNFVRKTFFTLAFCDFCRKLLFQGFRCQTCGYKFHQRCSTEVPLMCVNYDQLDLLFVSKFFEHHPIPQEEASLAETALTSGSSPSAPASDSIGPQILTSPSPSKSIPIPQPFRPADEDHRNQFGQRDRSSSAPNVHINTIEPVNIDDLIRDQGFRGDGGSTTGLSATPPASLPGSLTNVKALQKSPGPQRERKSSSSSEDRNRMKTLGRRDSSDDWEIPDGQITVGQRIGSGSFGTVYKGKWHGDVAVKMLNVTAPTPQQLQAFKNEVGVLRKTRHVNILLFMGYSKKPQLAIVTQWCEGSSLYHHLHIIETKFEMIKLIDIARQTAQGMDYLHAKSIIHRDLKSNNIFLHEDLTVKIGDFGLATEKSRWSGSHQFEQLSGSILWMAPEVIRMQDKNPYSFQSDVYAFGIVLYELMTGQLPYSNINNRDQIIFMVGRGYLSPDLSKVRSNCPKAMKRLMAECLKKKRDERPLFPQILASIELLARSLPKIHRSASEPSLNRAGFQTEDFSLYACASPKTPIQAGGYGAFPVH

Sequence of BRAF V600E-P686Q (P15056 whole entry V600E/P686Q): as the sequence (P15056 whole entry T521K/V600E) above, with K521T, P686Q counted along it

With `Cn1c(Nc2ccc(C(F)(F)F)cc2)nc2cc(Oc3ccnc(-c4ncc(C(F)(F)F)[nH]4)c3)ccc21` [RAF-265], the “sensitivity of cells to the RAF inhibitor” value in experiment [1] is “resistant”; in experiment [2], “sensitive”.

With `CCCS(=O)(=O)Nc1ccc(F)c(C(=O)c2c[nH]c3ncc(Cl)cc23)c1F` [PLX4720], the “increase in phosphorylated MEK1/2 and ERK1/2 in the presence of increasing concentrations of inhibitor” value on BRAF V600E-P686Q and at BRAF-V600E-T521K was “sustained” each time.

For the origin of these results see patent US8637246B2, “BRAF mutations conferring resistance to BRAF inhibitors” (Dana-Farber Cancer Institute, Inc., priority 2010, dated 2014).
